Assay results reported in patent US10385052B2, “Tricyclic compound and JAK inhibitor” (NISSAN CHEMICAL CORPORATION, priority 2014, dated 2019).

Tests used:
[1] = test system: cytokine signaling via JAK; assay: Signal assay in rat whole blood (STAT phosphorylation assay); assay type: cell-based; details: T-cell; female Lewis rat whole blood, rat IL-6 100 ng/mL, phosphated STAT-1 in CD3 positive T cells
Procedure: 2. Signal Assay in Rat Whole Blood
The inhibitory activities of the compounds of the present invention obtained in Synthetic Examples 1 and 2 against cytokine signaling via JAK were measured by STAT phosphorylation assay using rat whole blood.
Female Lewis rats were purchased from CHARLES RIVER LABORATORIES JAPAN, INC.
Rat IL-6 was purchased from PeproTech.
Each compound was used at three consecutive concentrations of 1 μM, 0.1 μM and 0.01 μM, or 10 μM, 1 μM and 0.1 μM.
The concentration of rat IL-6 was 100 ng/mL.
The concentration of FITC-CD3 was 1 μg/mL.
(§1) The blood and a compound were put into each Costar assay block tube and incubated at 37° C. for 15 minutes, then incubated with FITC-CD3 at 37° C. for 15 minutes, incubated with rat IL-6 at 37° C. for 15 minutes and incubated with 10 times as much of BD Phosflow Lyse/Fix Buffer as the blood at 37° C. for 12 minutes. Centrifugal separation was carried out at 5,884 m/s^2 for 6 minutes with a centrifugal separator to precipitate the cells, and the supernatants were removed.
(§2) The cell pellets were washed with 1 mL of phosphate buffered saline (PBS), then incubated with 0.6 mL of BD Phosflow Perm Buffer III on ice for 30 minutes and centrifuged at 5,884 m/s^2 for 6 minutes by means of a centrifugal separator to precipitate the cells, and the supernatants were removed.
(§3) The cell pellets were washed with 0.3 mL of BD Pharmingen Stain Buffer and incubated with 0.1 mL of BD Pharmingen Stain Buffer and 10 μL of BD Phosflow STAT-1 at room temperature for 30 minutes. After addition of 0.1 mL of BD Pharmingen Stain Buffer, the cells were centrifuged at 5,884 m/s^2 for 6 minutes by means of a centrifugal separator to precipitate the cells, and the supernatants were removed.
(§4) The cell pellets were washed with 0.3 mL of BD Pharmingen Stain Buffer, and 0.12 mL of BD Pharmingen Stain Buffer was added. The cytokine signaling inhibition was measured with FACS Cantoll (manufactured by BD) by detecting FITC-labeled CD3 positive T cells and detecting the amount of phosphated STAT-1 protein in the cells as the PE fluorescence. From the plot of the logarithm of a compound concentration and inhibitory activity, the IC50 value was calculated.

[2] = test system: cytokine signaling via JAK; assay: Signal assay in human whole blood (STAT phosphorylation assay); assay type: cell-based; details: T-cell, human IL-6 100 ng/mL, phosphated STAT-1 in CD3 positive T cells
Procedure: 3. Signal Assay in Human Whole Blood
The inhibitory activities of the compounds of the present invention obtained in Synthetic Examples 3 to 7 against cytokine signaling via JAK were measured by STAT phosphorylation assay using human whole blood.
Human whole blood was collected from healthy humans.
Human IL-6 was purchased from R&D systems.
Each compound was used at six concentrations of 3 μM, 1.5 μM, 0.75 μM, 0.38 μM, 0.19 μM and 0.093 μM, at six concentrations of 2 μM, 1 μM, 0.5 μM, 0.25 μM, 0.13 μM and 0.063 μM, or at six concentrations of 10 μM, 5 μM, 2.5 μM, 1.25 μM, 0.63 μM and 0.31 μM.
The concentration of human IL-6 was 100 ng/mL.
as §1, with “Human blood and” for “The blood and”, “C. for 30 minutes, then” for “C. for 15 minutes, then”, “incubated with human IL-6 at” for “incubated with FITC-CD3 at 37° C. for 15 minutes, incubated with rat IL-6 at”
as §2
as §3, with “Pharmingen Stain Buffer, 10 μL” for “Pharmingen Stain Buffer and 10 μL”, “Phosflow STAT-1 and 5 μL of FITC-hCD3 at room” for “Phosflow STAT-1 at room”
as §4

Tyk2 = Tyk2 (Homo sapiens (Human), UniProt P29597); assay: Tyk2 enzyme assay; assay type: biochemical; details: enzyme 0.25 μg/mL, ATP 20 μM
Procedure: (§5) The JAK inhibitory activities of compounds of the present invention were measured.
(§6) The enzymes (JAK1, JAK2, JAK3 and Tyk2) were purchased from Carna Biosciences, Inc.
(§7) As the substrate for the enzymes (hereinafter referred to as the substrate), LANCE Ultra ULight-JAK-1 (Tyr1023) Peptide (manufactured by PerkinElmer Co., Ltd.) was used.
(§8) As the antibody for detecting phosphorylation of the substrate, LANCE Ultra Europium-anti-phospho tyrosine antibody (PT66) (manufactured by PerkinElmer Co., Ltd.) was used.
(§9) The compounds of the present invention, the enzymes (JAK1, JAK2, JAK3 and Tyk2), the substrate and ATP were used for the assays after diluted with the assay buffer.
(§10) The enzyme concentrations and the ATP concentrations in the respective enzyme (JAK1, JAK2, JAK3 and Tyk2) assays were as follows.
Tyk2 enzyme assay; the enzyme concentration was 0.25 μg/mL and the ATP concentration was 20 μM.
(§11) The concentration of the substrate for the enzymes was 25 nM.
(§12) Dilute solutions of compounds and enzymes were dispensed into wells of a 384-well black plate (manufactured by Greiner bio-one) and preincubated at room temperature for 5 minutes.
(§13) Then, a dilute solution of the substrate and then a dilute solution of ATP were added, and the plate was incubated at room temperature for 30 minutes.
(§14) Then, a dilute solution of EDTA and then a dilute solution of PT66 were added, and the plate was incubated at room temperature for 1 hour.
(§15) The fluorescences were measured with ARVO-HTS, and from the plot of logarithm of a compound concentration and inhibitory activity, the IC50 value was calculated.

JAK2 = JAK2 (Homo sapiens (Human), UniProt O60674); assay: JAK2 enzyme assay; assay type: biochemical; details: enzyme 0.013 μg/mL, ATP 10 μM
Procedure: as §5, §6, §7, §8, §9, §10
JAK2 enzyme assay; the enzyme concentration was 0.013 μg/mL, and the ATP concentration was 10 μM.
as §11, §12, §13, §14, §15

JAK1 = JAK1 (Homo sapiens (Human), UniProt P23458); assay: JAK1 enzyme assay; assay type: biochemical; details: enzyme 0.5 μg/mL, ATP 70 μM
Procedure: as §5, §6, §7, §8, §9, §10
JAK1 enzyme assay; the enzyme concentration was 0.5 μg/mL, and the ATP concentration was 70 μM.
as §11, §12, §13, §14, §15

JAK3 = JAK3 (Homo sapiens (Human), UniProt P52333); assay: JAK3 enzyme assay; assay type: biochemical; details: enzyme 0.020 μg/mL, ATP 3 μM
Procedure: as §5, §6, §7, §8, §9, §10
JAK3 enzyme assay; the enzyme concentration was 0.020 μg/mL, and the ATP concentration was 3 μM.
as §11, §12, §13, §14, §15

Sequence of JAK2 (O60674 whole entry): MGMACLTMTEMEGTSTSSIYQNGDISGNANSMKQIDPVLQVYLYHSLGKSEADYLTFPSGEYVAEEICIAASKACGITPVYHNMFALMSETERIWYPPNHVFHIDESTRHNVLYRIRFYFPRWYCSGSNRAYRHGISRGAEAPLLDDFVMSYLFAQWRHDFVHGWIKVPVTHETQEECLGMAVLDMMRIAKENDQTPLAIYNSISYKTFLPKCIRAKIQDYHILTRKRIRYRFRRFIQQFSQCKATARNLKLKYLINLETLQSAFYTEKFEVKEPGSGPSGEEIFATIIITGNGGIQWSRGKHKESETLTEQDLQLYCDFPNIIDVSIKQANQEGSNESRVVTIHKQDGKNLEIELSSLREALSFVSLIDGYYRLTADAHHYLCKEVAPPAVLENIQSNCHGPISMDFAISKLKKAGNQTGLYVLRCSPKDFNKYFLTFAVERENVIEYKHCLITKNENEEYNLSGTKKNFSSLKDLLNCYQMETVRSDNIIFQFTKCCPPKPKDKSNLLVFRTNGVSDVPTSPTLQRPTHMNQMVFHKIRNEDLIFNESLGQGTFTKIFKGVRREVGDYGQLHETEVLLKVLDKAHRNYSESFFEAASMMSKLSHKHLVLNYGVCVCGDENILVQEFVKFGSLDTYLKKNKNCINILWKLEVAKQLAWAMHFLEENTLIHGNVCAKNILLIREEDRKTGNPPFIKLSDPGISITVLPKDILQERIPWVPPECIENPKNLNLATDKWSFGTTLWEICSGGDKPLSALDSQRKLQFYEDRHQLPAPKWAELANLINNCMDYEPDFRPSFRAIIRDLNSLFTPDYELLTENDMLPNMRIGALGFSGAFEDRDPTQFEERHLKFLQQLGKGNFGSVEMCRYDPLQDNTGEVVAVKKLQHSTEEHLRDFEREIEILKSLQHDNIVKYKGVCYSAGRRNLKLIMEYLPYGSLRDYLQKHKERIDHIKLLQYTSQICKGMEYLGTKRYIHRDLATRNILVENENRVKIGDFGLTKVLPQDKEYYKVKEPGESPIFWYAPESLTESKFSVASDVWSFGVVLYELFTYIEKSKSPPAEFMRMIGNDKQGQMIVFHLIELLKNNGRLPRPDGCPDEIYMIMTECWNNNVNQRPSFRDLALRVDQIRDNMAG
Sequence of JAK3 (P52333 whole entry): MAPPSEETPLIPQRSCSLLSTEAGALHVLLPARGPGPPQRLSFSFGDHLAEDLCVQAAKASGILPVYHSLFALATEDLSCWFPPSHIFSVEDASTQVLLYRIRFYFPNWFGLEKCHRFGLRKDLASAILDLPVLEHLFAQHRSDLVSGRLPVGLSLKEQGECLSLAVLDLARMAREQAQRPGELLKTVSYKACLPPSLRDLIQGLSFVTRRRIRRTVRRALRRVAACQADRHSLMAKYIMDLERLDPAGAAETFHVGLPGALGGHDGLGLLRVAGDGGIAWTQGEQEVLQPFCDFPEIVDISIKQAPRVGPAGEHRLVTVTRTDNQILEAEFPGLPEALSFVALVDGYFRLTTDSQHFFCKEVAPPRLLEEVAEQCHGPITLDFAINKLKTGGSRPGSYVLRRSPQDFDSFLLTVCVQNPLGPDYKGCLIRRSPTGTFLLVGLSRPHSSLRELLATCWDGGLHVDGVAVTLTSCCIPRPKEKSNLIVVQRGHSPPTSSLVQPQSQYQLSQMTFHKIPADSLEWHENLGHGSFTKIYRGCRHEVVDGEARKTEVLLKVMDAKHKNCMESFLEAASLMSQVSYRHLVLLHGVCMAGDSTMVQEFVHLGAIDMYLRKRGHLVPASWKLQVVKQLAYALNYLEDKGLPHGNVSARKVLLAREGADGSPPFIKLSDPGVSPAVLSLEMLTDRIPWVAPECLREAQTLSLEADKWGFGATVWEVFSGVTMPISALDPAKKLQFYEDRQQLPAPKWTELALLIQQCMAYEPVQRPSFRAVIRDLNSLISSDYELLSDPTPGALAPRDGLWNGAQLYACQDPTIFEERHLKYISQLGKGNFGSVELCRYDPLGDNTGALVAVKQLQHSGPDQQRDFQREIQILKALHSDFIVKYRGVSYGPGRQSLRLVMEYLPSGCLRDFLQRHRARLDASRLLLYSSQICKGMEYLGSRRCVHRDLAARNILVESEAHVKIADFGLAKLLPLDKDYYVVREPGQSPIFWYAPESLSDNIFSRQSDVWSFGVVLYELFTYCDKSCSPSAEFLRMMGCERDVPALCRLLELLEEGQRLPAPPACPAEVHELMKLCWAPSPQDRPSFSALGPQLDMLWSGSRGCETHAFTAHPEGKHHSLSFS
Sequence of JAK1 (P23458 whole entry): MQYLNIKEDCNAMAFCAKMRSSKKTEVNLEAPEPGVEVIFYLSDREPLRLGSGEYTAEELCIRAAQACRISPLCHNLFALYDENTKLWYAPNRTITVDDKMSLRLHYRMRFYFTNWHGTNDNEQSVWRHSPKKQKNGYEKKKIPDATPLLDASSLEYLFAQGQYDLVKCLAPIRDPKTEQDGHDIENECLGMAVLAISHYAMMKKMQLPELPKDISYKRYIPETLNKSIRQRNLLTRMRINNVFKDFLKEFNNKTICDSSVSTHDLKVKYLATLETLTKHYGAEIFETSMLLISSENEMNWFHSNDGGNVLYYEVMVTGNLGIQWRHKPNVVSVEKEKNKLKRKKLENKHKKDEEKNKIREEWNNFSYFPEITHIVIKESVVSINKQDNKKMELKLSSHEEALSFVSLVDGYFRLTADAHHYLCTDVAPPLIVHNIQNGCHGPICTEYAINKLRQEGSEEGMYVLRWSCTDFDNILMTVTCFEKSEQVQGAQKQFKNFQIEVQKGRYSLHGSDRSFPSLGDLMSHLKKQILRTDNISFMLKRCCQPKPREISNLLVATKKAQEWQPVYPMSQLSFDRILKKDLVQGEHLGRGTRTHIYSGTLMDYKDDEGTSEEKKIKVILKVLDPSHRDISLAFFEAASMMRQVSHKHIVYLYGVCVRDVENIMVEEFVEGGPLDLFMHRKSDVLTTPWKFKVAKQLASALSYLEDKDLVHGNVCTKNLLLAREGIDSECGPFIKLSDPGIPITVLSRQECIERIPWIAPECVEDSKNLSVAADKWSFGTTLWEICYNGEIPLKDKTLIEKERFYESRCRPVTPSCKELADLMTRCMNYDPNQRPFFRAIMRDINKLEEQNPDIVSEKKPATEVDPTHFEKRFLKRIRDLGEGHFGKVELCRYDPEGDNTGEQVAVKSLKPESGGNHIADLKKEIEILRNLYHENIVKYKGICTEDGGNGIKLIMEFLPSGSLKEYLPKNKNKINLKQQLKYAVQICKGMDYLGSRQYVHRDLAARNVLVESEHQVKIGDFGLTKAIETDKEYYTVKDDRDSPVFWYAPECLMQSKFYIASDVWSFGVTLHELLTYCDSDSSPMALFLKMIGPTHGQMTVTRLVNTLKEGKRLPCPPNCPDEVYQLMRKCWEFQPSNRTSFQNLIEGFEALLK
Sequence of Tyk2 (P29597 whole entry): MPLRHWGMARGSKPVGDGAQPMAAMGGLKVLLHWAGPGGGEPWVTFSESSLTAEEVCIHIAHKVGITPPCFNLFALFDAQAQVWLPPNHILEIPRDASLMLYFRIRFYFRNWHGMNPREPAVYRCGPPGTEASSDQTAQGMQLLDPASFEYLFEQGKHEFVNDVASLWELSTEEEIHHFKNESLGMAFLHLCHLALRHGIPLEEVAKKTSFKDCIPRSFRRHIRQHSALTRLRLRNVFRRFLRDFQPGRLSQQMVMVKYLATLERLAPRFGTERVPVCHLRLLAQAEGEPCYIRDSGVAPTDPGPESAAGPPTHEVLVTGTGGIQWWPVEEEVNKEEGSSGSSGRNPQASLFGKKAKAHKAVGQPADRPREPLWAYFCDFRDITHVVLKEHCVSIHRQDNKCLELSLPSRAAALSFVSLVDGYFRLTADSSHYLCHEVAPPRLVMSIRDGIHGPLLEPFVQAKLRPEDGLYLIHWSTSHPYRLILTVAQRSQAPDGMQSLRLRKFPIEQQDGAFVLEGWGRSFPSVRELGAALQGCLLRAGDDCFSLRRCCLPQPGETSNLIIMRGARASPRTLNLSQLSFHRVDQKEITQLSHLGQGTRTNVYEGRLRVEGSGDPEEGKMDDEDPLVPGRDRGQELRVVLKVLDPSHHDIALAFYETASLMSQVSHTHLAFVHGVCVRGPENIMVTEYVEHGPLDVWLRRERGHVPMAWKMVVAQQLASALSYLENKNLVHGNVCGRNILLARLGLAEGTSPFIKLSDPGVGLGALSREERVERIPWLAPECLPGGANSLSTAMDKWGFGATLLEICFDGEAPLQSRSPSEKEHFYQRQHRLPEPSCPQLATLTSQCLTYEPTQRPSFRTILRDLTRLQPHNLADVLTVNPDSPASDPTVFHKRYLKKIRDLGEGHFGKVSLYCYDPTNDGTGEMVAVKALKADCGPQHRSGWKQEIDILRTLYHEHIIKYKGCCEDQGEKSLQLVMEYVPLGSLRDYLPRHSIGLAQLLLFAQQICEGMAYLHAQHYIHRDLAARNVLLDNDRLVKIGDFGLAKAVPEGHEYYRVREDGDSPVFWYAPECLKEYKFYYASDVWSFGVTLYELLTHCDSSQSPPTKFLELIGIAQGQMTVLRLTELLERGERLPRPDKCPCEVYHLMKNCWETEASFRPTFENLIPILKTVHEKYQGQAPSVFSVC

Row | Structure (SMILES) | IC50 [1] | IC50 [2] | IC50 (Tyk2) | IC50 (JAK2) | IC50 (JAK1) | IC50 (JAK3)
1 | O=c1ccn(C2CCCCC2)c2c1cnc1[nH]ccc12 [Compound E, reference compound] |  | 1300 nM |  |  |  | 
2 | O=C1CCN(C2CCC(CO)CC2)c2c1cnc1[nH]ccc21 (stereo not shown) [Compound F, reference compound] |  | 5900 nM |  |  |  | 
3 | COC1CCC(n2ccc(=O)c3cnc4[nH]ccc4c32)CC1 (stereo not shown) [Compound G, reference compound] |  | 6500 nM |  |  |  | 
4 | Cc1nc(CN2CCC(n3ccc(=O)c4cnc5[nH]ccc5c43)CC2)cs1 [Compound J, reference compound] |  | 7600 nM |  |  |  | 
5 | Cc1cnn(C[C@H]2CC[C@H](n3ccc(=O)c4cnc5[nH]ccc5c43)CC2)c1 [Synthetic Example 4, 1-{trans-4-[(4-Methyl-1H-pyrazol-1-yl)methyl]cyclohexyl}-1H-pyrrolo[2,3-h][1,6]naphthyridin-4(7H)-one] |  | 300 nM | 39 nM | 1.9 nM | 0.41 nM | 7.1 nM
6 | O=c1ccn([C@H]2CC[C@H](COCC(F)(F)F)CC2)c2c1cnc1[nH]ccc12 [Synthetic Example 5, 1-{trans-4-[(2,2,2-Trifluoroethoxy)methyl]cyclohexyl}-1H-pyrrolo[2,3-h][1,6]naphthyridin-4(7H)-one] |  | 170 nM | 10 nM |  | 0.59 nM | 2.7 nM
7 | O=c1ccn([C@H]2CC[C@H](COCCC(F)(F)F)CC2)c2c1cnc1[nH]ccc12 [Synthetic Example 6, 1-{trans-4-[(3,3,3-Trifluoropropoxy)methyl]cyclohexyl}-1H-pyrrolo[2,3-h][1,6]naphthyridin-4(7H)-one] |  | 130 nM | 19 nM | 1.6 nM | 0.68 nM | 2.5 nM

Next, values leading:

Row | IC50 [1] | IC50 [2] | IC50 (Tyk2) | IC50 (JAK2) | IC50 (JAK1) | IC50 (JAK3) | Structure (SMILES)
8 | 2400 nM |  |  |  |  |  | O=c1[nH]c(=O)n(C2CCC(CNCC(F)(F)F)CC2)c2c1cnc1[nH]ccc12 (stereo not shown) [A]
9 | 1300 nM |  |  |  |  |  | N#CCCN(CCC#N)CC1CCC(n2c(=O)[nH]c(=O)c3cnc4[nH]ccc4c32)CC1 (stereo not shown) [Compound B]
10 | 390 nM |  | 22 nM | 4.6 nM | 0.99 nM | 15 nM | N#CC[C@@H](NC[C@H]1CC[C@H](n2c(=O)[nH]c(=O)c3cnc4[nH]ccc4c32)CC1)C(F)(F)F [Synthetic Example 1, (R)-3-({[trans-4-(2,4-Dioxo-2,3,4,7-tetrahydro-1H-pyrrolo[3′,2′:5,6]pyrido[4,3-d]pyrimidin-1-yl)cyclohexyl]methyl}amino)-4,4,4-trifluorobutanenitrile]
11 | 270 nM |  | 26 nM | 1.5 nM | 0.35 nM | 2.9 nM | O=c1[nH]c(=O)n([C@H]2CC[C@H](COCCC(F)(F)F)CC2)c2c1cnc1[nH]ccc12 [Synthetic Example 2, 1-{trans-4-[(3,3,3-Trifluoropropoxy)methyl]cyclohexyl}-1H-pyrrolo[3′,2′:5,6]pyrido[4,3-d]pyrimidine-2,4(3H,7H)-dione]
12 |  | 440 nM | 18 nM | 5.1 nM | 1.7 nM | 10 nM | N#CC[C@@H](NC[C@H]1CC[C@H](n2ccc(=O)c3cnc4[nH]ccc4c32)CC1)C(F)(F)F [Synthetic Example 3, (R)-4,4,4-Trifluoro-3-({[trans-4-(4-oxo-4,7-dihydro-1H-pyrrolo[2,3-h][1,6]naphthyridin-1-yl)cyclohexyl]methyl}amino)butanenitrile]
13 |  | 150 nM | 11 nM | 2 nM | 0.74 nM | 5.1 nM | N#CC[C@@H](OC[C@H]1CC[C@H](n2ccc(=O)c3cnc4[nH]ccc4c32)CC1)C(F)(F)F [Synthetic Example 7, (R)-4,4,4-Trifluoro-3-{[trans-4-(4-oxo-4,7-dihydro-1H-pyrrolo[2,3-h][1,6]naphthyridin-1-yl)cyclohexyl]methoxy}butanenitrile]
